Assay [1] addresses T1, mPiezo1 (Mus musculus, UniProt E2JF22).
T1 construct: The full-length mPiezo1 has 2547 amino acids in each monomer; expressed in transfected cells; host or cells: HEK293T
Description: Cell-attached patch with pressure clamp (stretch-activated currents). It is filed as cell-based. To be noted: for slope sensitivity (s): DMSO 14.1 ± 0.7; for P50 (the pressure required for half maximal activation): DMSO −27.0 ± 3.4. Here is the method:
Stretch-activated currents were recorded in the cell-attached patch-clamp configuration as previously described. Currents were sampled at 20 kHz and filtered at 2 kHz. Pipette was filled with a solution consisting of (in mM) 130 NaCl, 5 KCl, 10 HEPES, 1 CaCl2, 1 MgCl2, and 10 TEA-Cl (pH 7.3, balanced with NaOH). The external solution used to zero the membrane potential consisted of (in mM) 140 KCl, 10 HEPES, 1 MgCl2, and 10 glucose (pH 7.3 with KOH). All experiments were done at room temperature. Membrane patches were stimulated with negative pressure pulses for 500 ms through the recording electrode using a Patchmaster-controlled pressure clamp HSPC-1 device (ALA-scientific). Stretch-activated channels were recorded at a holding potential of −80 mV with pressure steps from 0 to −100 mm Hg (−10 mm Hg increments), and 4–11 recording traces were averaged per cell for analysis. Current-pressure relationships were fitted with a Boltzmann equation of the form: I(P) = [1 + exp (−(P – P50)/s)]^−^1, where I is the peak of stretch-activated current at a given pressure, P is the applied patch pressure (in mm Hg), P50 is the pressure value that evoked a current value which is 50% of Imax, and s reflects the current sensitivity to pressure.

The subject of assay [2] is mPiezo1 loop deletion mutants ΔL15-16 (657-677) and ΔL19-20 (870–921). Description: Patch clamp (chemical-, poking- and stretching-induced currents), loop deletion mutants. In kind it is cell-based, mouse. Here is the method:
Protocols for HEK293T cell culture, transient transfection, and patch-clamp experiments with an Axopatch 200B amplifier (Axon Instruments) or HEKA EPC10 were essentially similar to how previously described[6],[8]. […] The extracellular solution was composed of (in mM) 133 NaCl, 3 KCl, 2.5 CaCl2, 1 MgCl2, 10 HEPES (pH 7.3 with NaOH), and 10 glucose. All experiments were carried out at room temperature. Currents were sampled at 20 kHz, filtered at 2 kHz using the Clampex 10.4 software (Axon Instruments) or Patchmaster software. Leak currents before mechanical stimulations were subtracted offline from the current traces.
Mechanical stimulation was delivered to the cell during the patch-clamp recording at an angle of 80° using a fire-polished glass pipette (tip diameter 3–4 μm) as previously described[5],[6]. […] A series of mechanical steps in 1 μm increments was applied every 20 s and currents were recorded at a holding potential of −70 mV. […] In the step-wise poking experiment, the patch was readily lost when the cell was broken at the end of the poking. […]
Stretch-activated currents were recorded in the cell-attached patch-clamp configuration as previously described. […] Stretch-activated channels were recorded at a holding potential of −80 mV with pressure steps from 0 to −100 mm Hg (−10 mm Hg increments), and 4–11 recording traces were averaged per cell for analysis. […]
(Patch clamp records ionic current or voltage across a cell membrane.)

In a further assay the target is T2, mPiezo1 Q1344A (Mus musculus, UniProt E2JF22, Q1344A).
T2 construct: The full-length mPiezo1 has 2547 amino acids in each monomer; mCherry; expressed in transfected cells; host or cells: HEK293T
T2 sequence (E2JF22 whole entry Q1344A): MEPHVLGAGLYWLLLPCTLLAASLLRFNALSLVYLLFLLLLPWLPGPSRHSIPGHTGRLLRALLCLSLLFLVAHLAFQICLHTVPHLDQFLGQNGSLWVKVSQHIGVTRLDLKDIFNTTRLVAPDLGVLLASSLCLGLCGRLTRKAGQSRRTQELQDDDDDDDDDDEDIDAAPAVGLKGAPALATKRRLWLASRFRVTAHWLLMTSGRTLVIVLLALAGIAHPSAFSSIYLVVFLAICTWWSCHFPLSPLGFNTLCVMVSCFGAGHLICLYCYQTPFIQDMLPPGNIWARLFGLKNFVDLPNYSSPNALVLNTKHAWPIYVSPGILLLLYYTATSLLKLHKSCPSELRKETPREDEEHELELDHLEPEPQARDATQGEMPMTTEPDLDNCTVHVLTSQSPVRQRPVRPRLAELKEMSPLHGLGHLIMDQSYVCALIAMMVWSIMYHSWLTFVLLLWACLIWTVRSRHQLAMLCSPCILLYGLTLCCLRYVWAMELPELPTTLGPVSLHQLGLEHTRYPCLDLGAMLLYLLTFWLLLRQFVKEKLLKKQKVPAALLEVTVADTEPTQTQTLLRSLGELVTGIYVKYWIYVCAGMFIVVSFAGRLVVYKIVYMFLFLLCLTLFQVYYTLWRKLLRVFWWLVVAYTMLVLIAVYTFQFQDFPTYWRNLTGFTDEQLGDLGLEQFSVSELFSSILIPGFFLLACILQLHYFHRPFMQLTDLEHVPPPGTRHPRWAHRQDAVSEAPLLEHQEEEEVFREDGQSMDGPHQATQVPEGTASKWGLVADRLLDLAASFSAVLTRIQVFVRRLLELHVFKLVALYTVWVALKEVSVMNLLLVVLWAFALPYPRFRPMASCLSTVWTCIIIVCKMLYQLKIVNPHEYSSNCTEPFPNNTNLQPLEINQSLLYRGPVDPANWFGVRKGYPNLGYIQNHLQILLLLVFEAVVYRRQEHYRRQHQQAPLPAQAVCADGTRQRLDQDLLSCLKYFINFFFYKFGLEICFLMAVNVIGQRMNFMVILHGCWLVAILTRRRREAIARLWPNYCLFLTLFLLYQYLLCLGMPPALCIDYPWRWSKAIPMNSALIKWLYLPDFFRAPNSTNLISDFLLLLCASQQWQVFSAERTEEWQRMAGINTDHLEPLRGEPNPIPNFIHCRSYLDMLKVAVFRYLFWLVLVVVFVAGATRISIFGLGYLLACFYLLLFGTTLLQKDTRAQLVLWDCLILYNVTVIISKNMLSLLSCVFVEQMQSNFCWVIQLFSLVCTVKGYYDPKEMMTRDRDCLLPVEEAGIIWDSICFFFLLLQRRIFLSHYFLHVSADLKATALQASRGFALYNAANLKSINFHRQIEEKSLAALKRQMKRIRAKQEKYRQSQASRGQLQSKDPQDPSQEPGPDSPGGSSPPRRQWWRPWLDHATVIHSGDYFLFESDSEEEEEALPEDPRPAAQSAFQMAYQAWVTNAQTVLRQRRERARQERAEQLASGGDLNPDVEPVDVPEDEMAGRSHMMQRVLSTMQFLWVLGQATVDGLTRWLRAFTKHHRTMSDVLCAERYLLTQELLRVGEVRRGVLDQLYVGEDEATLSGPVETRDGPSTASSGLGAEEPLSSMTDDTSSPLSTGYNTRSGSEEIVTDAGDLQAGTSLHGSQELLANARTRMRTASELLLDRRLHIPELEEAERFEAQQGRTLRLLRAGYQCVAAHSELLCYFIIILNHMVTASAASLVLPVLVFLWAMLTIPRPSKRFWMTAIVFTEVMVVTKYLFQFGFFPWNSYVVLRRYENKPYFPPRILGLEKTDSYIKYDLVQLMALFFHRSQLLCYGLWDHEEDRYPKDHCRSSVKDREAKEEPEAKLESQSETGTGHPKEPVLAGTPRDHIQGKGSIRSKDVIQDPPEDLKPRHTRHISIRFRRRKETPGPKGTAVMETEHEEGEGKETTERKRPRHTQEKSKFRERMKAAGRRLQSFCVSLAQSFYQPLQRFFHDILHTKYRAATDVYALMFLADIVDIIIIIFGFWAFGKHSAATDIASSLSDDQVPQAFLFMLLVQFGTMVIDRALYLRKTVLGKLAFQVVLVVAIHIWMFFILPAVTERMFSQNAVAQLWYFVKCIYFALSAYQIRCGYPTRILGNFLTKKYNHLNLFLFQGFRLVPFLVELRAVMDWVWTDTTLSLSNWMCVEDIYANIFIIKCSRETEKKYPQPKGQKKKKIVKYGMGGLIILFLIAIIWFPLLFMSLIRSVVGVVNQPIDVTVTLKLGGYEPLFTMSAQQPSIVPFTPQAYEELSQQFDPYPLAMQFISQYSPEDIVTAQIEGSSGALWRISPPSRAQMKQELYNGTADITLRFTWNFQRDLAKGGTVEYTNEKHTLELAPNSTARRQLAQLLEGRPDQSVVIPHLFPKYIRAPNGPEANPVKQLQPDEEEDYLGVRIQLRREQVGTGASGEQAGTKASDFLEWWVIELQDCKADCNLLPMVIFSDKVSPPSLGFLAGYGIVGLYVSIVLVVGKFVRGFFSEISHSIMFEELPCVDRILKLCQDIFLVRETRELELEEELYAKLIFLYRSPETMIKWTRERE
Description: Fura-2 single-cell Ca2+ imaging, Q1344A mutant. It is filed as cell-based. To be noted: 1 mM Jedi1, 30 µM Yoda1. The protocol: Fura-2 single-cell Ca^2+ imaging was performed according to the previous protocol. In brief, mCherry-Piezo1 cDNA (1 μg)-transfected HEK293T cells were plated onto 12-mm round glass coverslips, which were coated with poly-D-lysine and placed in 24-well plates, and subject to Fura-2 single-cell Ca^2+ imaging about 36 h post transfection. Cells were washed with buffer containing 1× HBSS (1.3 mM Ca^2+) and 10 mM HEPES (pH 7.2), incubated with 2.5 μM Fura-2 and 0.05% Pluronic F-127 (Life Technologies) for 30 min, then washed again with the previously mentioned buffer. The coverslip was mounted into an inverted Nikon-Tie microscope equipped with a CoolSNAP charge-coupled devise (CCD) camera and Lambda XL light box (Sutter Instrument), and mCherry-positive and -negative cells were selected for measurement of the 340/380 ratio with a ×20 objective (numerical aperture 0.75) using the MetaFluor Fluorescence Ratio Imaging software (Molecular Device).

For assay [3], the target named is T1, mPiezo1. Description: Cell-attached patch with pressure clamp (stretch-activated currents). It is filed as cell-based. To be noted: absence of externally applied pressure, compound in pipette, vs DMSO.

T1 sequence (E2JF22 whole entry): as the sequence (E2JF22 whole entry Q1344A) above, with A1344Q counted along it

`Clc1cccc(Cl)c1CSc1nnc(-c2cnccn2)s1` [Yoda1, reference compound]: the “slope sensitivity (s)” value at mPiezo1 [1] is on record as 8.0 ± 2.4 mm Hg. On mPiezo1 [1] (−80 mV), the “maximal stretching-induced Piezo1 current” value is on record as “Neither Jedi1 nor Yoda1 altered”, the “shift of the pressure-current relationship” value was “significant leftward shift” and the “P50 (the pressure required for half maximal activation)” value is given as −15.1 ± 0.9 mm Hg. Also, the “potentiation of stretching-induced currents of loop deletion mutants” value in assay [2] (ΔL15-16 and ΔL19-20, −80 mV) is recorded as “failed to potentiate”. Also, the “effect of the Q1344A mutation on compound-induced Ca2+ responses” value on mPiezo1 Q1344A was “did not affect”. For the same compound, the “fold change of NPo” value on mPiezo1 [3] amounted to 3.1 ± 1.3 fold.

`Cc1oc(-c2ccccc2)cc1C(=O)O` [Jedi1]: the “slope sensitivity (s)” value at mPiezo1 [1] came out at 9.8 ± 1.9 mm Hg. At mPiezo1 [1] (−80 mV), the “maximal stretching-induced Piezo1 current” value is reported as “Neither Jedi1 nor Yoda1 altered” and the “P50 (the pressure required for half maximal activation)” value is recorded as −16.7 ± 2.2 mm Hg. Also, the “whole-cell currents or potentiation of poking- or stretching-induced currents in loop deletion mutants” value in assay [2] (ΔL15-16 and ΔL19-20 mutant-transfected cells) was “failed to elicit”. For the same compound, the “effect of the Q1344A mutation on compound-induced Ca2+ responses” value on mPiezo1 Q1344A is “did not affect”. Moreover, the “fold change of NPo” value at mPiezo1 [3] turned out to be 4.7 ± 1.4 fold.

The values are drawn from article PMC5880808, “A lever-like transduction pathway for long-distance chemical- and mechano-gating of the mechanosensitive Piezo1 channel” (Nature Communications, 2018).
